{"source": "patent US20140370048A1", "about": "“COMPOSITION FOR TREATMENT OR PREVENTION OF HYPERLIPIDEMIA, CONTAINING ALCOHOL EXTRACTS OF OLIGOPORUS TEPHROLEUCUS” (POSTECH ACADEMY-INDUSTRY FOUNDATION, priority 2011, published 2014)", "tested_on": "cholesterol absorption in the digestive tract", "experiment": "Amount of cholesterol absorption into blood from the digestive tract after oral 3H-cholesterol oleate in mice", "format": "in vivo", "details": "8-week old male Balb/c mouse, plasma six hours after administration, extract 20 ml of 10 mg/mL concentrated into 0.1 mL, Orlistat 400 μg (20 mg/kg), FIG. 2", "protocol": "Cholesterol oleate (Amersham, 100 μCi/mL) radiolabeled with ^3H was mixed with 1% (w/v) sodium carboxylmethyl cellulose (CMC-Na), 1% (v/v) Tween 80, and a non-labeled cholesterol oleate, and then 0.1 mL of the mixture was forcibly administered into each mouse through an oral zonde so that 1 μCi could be delivered to each mouse. Here, the mouse in the control group (an 8-week old male Balb/c with body weight of 25 g) was treated with 400 μg of Orlistat (20 mg/kg), which has an inhibitory effect against cholesterol absorption, and the mouse in the experimental group (an 8-week old male Balb/c with body weight of 25 g) was treated with 20 ml of the ethanol extract (10 mg/mL) of Oligoporus tephroleucus prepared in the Example after concentrating it into 0.1 mL. Six hours after the administration, blood samples were collected from the mice, and plasma was obtained by centrifuging the blood at […] at the rate of 14000 rpm, and the radioactive dose was measured by a liquid scintillator (Beta counter, Beckman LS1801). The Control group was not treated with anything that may inhibit the absorption of cholesterol. The amount of cholesterol absorption was determined as a relative value by dividing the radioactive dose of each group into the radioactive dose of the control group, in which the radioactive dose of the control group was set at ‘1’.", "data": [{"smiles": "CCCCCCCCCCC[C@@H](C[C@@H]1OC(=O)[C@H]1CCCCCC)OC(=O)[C@H](CC(C)C)NC=O", "note": "[Orlistat]", "values": [{"measurement": "inhibitory effect upon the cholesterol absorption (plasma radioactive dose relative to untreated control set at 1)", "result": "significant inhibitory effect"}]}]}
